# Measurements published in ChEMBL document CHEMBL1201862, “PubChem BioAssay data set” (2004).
#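 Briefly, cells in 96-well plates were exposed to five compound concentrations for 48 h, and endpoints were estimated by linear interpolation. At the GI50, growth is halved.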 The source made the active and inactive calls. No stated cut-off is given here; in the data, active = GI50 up to about 1.1 µM and inactive = higher.
# What was measured:
# Experiment in all cases: inhibition of tumour cell growth, NCI panel, 48 h
# SNB-19 = test system: SNB-19
# NCI-H460 = test system: NCI-H460
# OVCAR-8 = test system: OVCAR-8
# HCT-116 = test system: HCT-116
# DU-145 = test system: DU-145
# Hs-578T = test system: Hs-578T
# CCRF-CEM = test system: CCRF-CEM
# UACC-62 = test system: UACC-62
# MDA-MB-231 = test system: MDA-MB-231
# HCT-15 = test system: HCT-15
# SF-268 = test system: SF-268
# MOLT-4 = test system: MOLT-4
# SNB-75 = test system: SNB-75
# MCF7 = test system: MCF7
# LOX IMVI = test system: LOX IMVI
# NCI-H23 = test system: NCI-H23
# SF-539 = test system: SF-539
# NCI-H226 = test system: NCI-H226
# HT-29 = test system: HT-29
# ACHN = test system: ACHN
Compound,GI50 (SNB-19),GI50 (NCI-H460),GI50 (OVCAR-8),GI50 (HCT-116),GI50 (DU-145),GI50 (Hs-578T),GI50 (CCRF-CEM),GI50 (UACC-62),GI50 (MDA-MB-231),GI50 (HCT-15),GI50 (SF-268),GI50 (MOLT-4),GI50 (SNB-75),GI50 (MCF7),GI50 (LOX IMVI),GI50 (NCI-H23),GI50 (SF-539),GI50 (NCI-H226),GI50 (HT-29),GI50 (ACHN)
C/C=C(\C)C(=O)OC1C2C(C)C(=O)OC2C(O)C(C)C2C=CC(=O)C21C (stereo not given),13.2 µM (inactive),4.49 µM (inactive),11.9 µM (inactive),9.59 µM (inactive),10.9 µM (inactive),13.3 µM (inactive),3.06 µM (inactive),10.5 µM (inactive),3.69 µM (inactive),10.6 µM,18.6 µM (inactive),8.47 µM (inactive),15.8 µM (inactive),7.85 µM (inactive),13.2 µM (inactive),10.4 µM (inactive),9.27 µM (inactive),16.9 µM (inactive),15.2 µM (inactive),12.3 µM (inactive)
COc1cc(-c2[o+]c3cc(O)cc(O)c3cc2O)cc(O)c1O,> 100 µM (inactive),> 100 µM (inactive),> 100 µM (inactive),> 100 µM (inactive),> 100 µM (inactive),> 100 µM (inactive),25.9 µM (inactive),> 100 µM (inactive),> 100 µM (inactive),> 100 µM,> 100 µM (inactive),> 100 µM (inactive),> 100 µM (inactive),21.3 µM (inactive),55.8 µM (inactive),> 100 µM (inactive),> 100 µM (inactive),> 100 µM (inactive),> 100 µM (inactive),> 100 µM (inactive)
CCCCC(=O)OC[n+]1ccc(-c2c(COC(=O)NC(C)C)c(COC(=O)NC(C)C)c3n2CCC3)cc1,> 100 µM (inactive),42.3 µM (inactive),> 100 µM (inactive),> 94.8 µM (inactive),> 70.5 µM (inactive),> 100 µM (inactive),33.7 µM (inactive),30.9 µM (inactive),> 67.6 µM (inactive),> 100 µM,57.9 µM (inactive),19.5 µM (inactive),60.3 µM (inactive),50.8 µM (inactive),47.9 µM (inactive),53.6 µM (inactive),40.4 µM (inactive),> 100 µM (inactive),> 76 µM (inactive),34.6 µM (inactive)
COc1cc2nc(-c3ccccc3)cc(O)c2cc1OC,25.2 µM (inactive),11.2 µM (inactive),35.1 µM (inactive),6.1 µM (inactive),54 µM (inactive),25.1 µM (inactive),8 µM (inactive),10.8 µM (inactive),26.7 µM (inactive),10.2 µM,41.6 µM (inactive),17.6 µM (inactive),12.1 µM (inactive),2.54 µM (inactive),10.7 µM (inactive),21.8 µM (inactive),14.3 µM (inactive),14.4 µM (inactive),9.84 µM (inactive),41.1 µM (inactive)
COc1ccc(/C=C2\CCC(CN3CCOCC3)C2=O)cc1 (stereo not given),11.4 µM (inactive),17.8 µM (inactive),2.74 µM (inactive),1.8 µM (inactive),2.23 µM (inactive),3.04 µM (inactive),1.38 µM (inactive),11.8 µM (inactive),2.08 µM (inactive),2.39 µM,6.76 µM (inactive),1.83 µM (inactive),4.68 µM (inactive),2.38 µM (inactive),4.65 µM (inactive),5.94 µM (inactive),5.92 µM (inactive),18.9 µM (inactive),2.44 µM (inactive),4.73 µM (inactive)
CCOc1ccc(/N=N/C2C(=O)N(C(=O)CC(=O)Nc3ccc(C)cc3)N=C2C)cc1 (stereo not given),14.3 µM (inactive),14.8 µM (inactive),16.6 µM (inactive),12.4 µM (inactive),38.6 µM (inactive),5.73 µM (inactive),43.6 µM (inactive),16.7 µM (inactive),17 µM (inactive),38.1 µM,22.3 µM (inactive),14.7 µM (inactive),8.02 µM (inactive),40.6 µM (inactive),14.6 µM (inactive),26.5 µM (inactive),14.8 µM (inactive),26.3 µM (inactive),24 µM (inactive),50.8 µM (inactive)
COc1cc(O)c2c(=O)c3c(C)cccc3n(C)c2c1,> 10 µM (inactive),> 10 µM (inactive),> 10 µM (inactive),> 10 µM (inactive),> 10 µM (inactive),> 10 µM (inactive),> 10 µM (inactive),> 10 µM (inactive),> 10 µM (inactive),> 10 µM,> 10 µM (inactive),> 10 µM (inactive),> 10 µM (inactive),> 10 µM (inactive),> 10 µM (inactive),> 10 µM (inactive),> 10 µM (inactive),> 10 µM (inactive),> 10 µM (inactive),> 10 µM (inactive)
O=C(Cn1c(=O)oc2ccccc21)N(c1ccccc1)c1ccccc1,> 100 µM (inactive),> 100 µM (inactive),52.8 µM (inactive),> 100 µM (inactive),> 100 µM (inactive),40.9 µM (inactive),> 100 µM (inactive),> 100 µM (inactive),> 100 µM (inactive),> 100 µM,67.5 µM (inactive),> 100 µM (inactive),11.5 µM (inactive),> 100 µM (inactive),> 100 µM (inactive),> 100 µM (inactive),88.9 µM (inactive),15.2 µM (inactive),> 100 µM (inactive),> 100 µM (inactive)
CCN(CC)CCCn1c(=O)c2cccnc2n2c3c(=O)n(C)c(=O)n(C)c3nc12,> 100 µM (inactive),84.7 µM (inactive),> 100 µM (inactive),> 100 µM (inactive),> 100 µM (inactive),> 100 µM (inactive),> 100 µM (inactive),> 100 µM (inactive),> 100 µM (inactive),> 100 µM,> 100 µM (inactive),> 100 µM (inactive),> 100 µM (inactive),> 100 µM (inactive),> 100 µM (inactive),> 100 µM (inactive),> 100 µM (inactive),> 100 µM (inactive),> 100 µM (inactive),> 100 µM (inactive)
C=C1C(=O)OC2/C=C(CO)/C=C\C3OC3(C)CC(OC(=O)/C(C)=C/COC(C)=O)C12 (stereo not given),12.5 µM (inactive),5.69 µM (inactive),2.47 µM (inactive),1.5 µM (inactive),16.6 µM (inactive),3.08 µM (inactive),1.26 µM (inactive),2.2 µM (inactive),2.66 µM (inactive),1.87 µM,4.04 µM (inactive),0.802 µM (active),7.8 µM (inactive),3.15 µM (inactive),1.34 µM (inactive),3.08 µM (inactive),1.96 µM (inactive),12.2 µM (inactive),2.52 µM (inactive),3.14 µM (inactive)
O=C1CCCC2=C1CC1=C(CCCC1=O)N2c1ccc(Cl)cc1,> 100 µM (inactive),> 100 µM (inactive),97.1 µM (inactive),> 100 µM (inactive),> 100 µM (inactive),> 100 µM (inactive),69.7 µM (inactive),> 100 µM (inactive),> 100 µM (inactive),> 100 µM,> 100 µM (inactive),94.6 µM (inactive),> 100 µM (inactive),> 100 µM (inactive),> 100 µM (inactive),> 100 µM (inactive),> 100 µM (inactive),> 100 µM (inactive),> 100 µM (inactive),> 100 µM (inactive)
Cc1ccc(NC(=O)c2cccc(OP(=O)(Nc3ccc(C)cc3)Nc3ccc(C)cc3)c2)cc1,35.1 µM (inactive),3.88 µM (inactive),16 µM (inactive),4.18 µM (inactive),53.3 µM (inactive),6.3 µM (inactive),13.8 µM (inactive),20.3 µM (inactive),3.32 µM (inactive),6.01 µM,43.1 µM (inactive),2.61 µM (inactive),4.14 µM (inactive),5.62 µM (inactive),10.9 µM (inactive),10.9 µM (inactive),23.3 µM (inactive),8.04 µM (inactive),3.5 µM (inactive),4 µM (inactive)
CO/N=C(\C)c1ccc(Nc2c3ccccc3nc3occc23)cc1,2.05 µM (inactive),0.426 µM (active),0.841 µM (active),0.374 µM (active),1.07 µM (active),0.482 µM (active),0.47 µM (active),0.38 µM (active),0.741 µM (active),0.191 µM,0.718 µM (active),0.366 µM (active),0.41 µM (active),0.168 µM (active),0.59 µM (active),2.36 µM (inactive),0.383 µM (active),4.34 µM (inactive),0.284 µM (active),0.568 µM (active)
CCCC[C@H]1C(=O)O[C@H](C)[C@H](NC(=O)c2cccc(NC=O)c2OC)C(=O)O[C@@H](C)[C@@H]1OC(=O)C(C)CC.CCCC[C@H]1C(=O)O[C@H](C)[C@H](NC(=O)c2cccc(NC=O)c2OC)C(=O)O[C@@H](C)[C@@H]1OC(=O)CC(C)C (stereo not given in full),9.44 µM (inactive),5.35 µM (inactive),12.9 µM (inactive),12.1 µM (inactive),13.4 µM (inactive),17.7 µM (inactive),3.32 µM (inactive),7.14 µM (inactive),12.1 µM (inactive),12.8 µM,14.2 µM (inactive),11.2 µM (inactive),8.02 µM (inactive),12.5 µM (inactive),10.3 µM (inactive),7.36 µM (inactive),15.8 µM (inactive),12.2 µM (inactive),9.84 µM (inactive),10.8 µM (inactive)
